Measurements taken from publication PMC9695599, “N-Terminally Lipidated Sialorphin Analogs—Synthesis, Molecular Modeling, In Vitro Effect on Enkephalins Degradation by NEP and Treatment of Intestinal Inflammation in Mice” (International Journal of Molecular Sciences, 2022).
Residues, ends and D or L forms follow the SMILES beside them.

How the values were obtained:
[1] = target: neutral endopeptidase (NEP) (Homo sapiens, UniProt P08473); test: Degradation of Met-enkephalin by NEP alone and in the presence of inhibitors; conditions: for 1000 × k, degradation rate of Met-enkephalin incubated with NEP in the presence of inhibitor / t1/2, half-life of Met-enkephalin incubated with NEP in the presence of inhibitor: Met-enkephalin 0.0413 mM, inhibitor 0.156 mM, NEP 5.687 nM, Tris–HCl 50 mM pH 7.4, 37 °C, 0, 30, 60, 90, 120 min, RP-HPLC, mean ± SEM, triplicates
Procedure: Determination of Met-enkephalin degradation rates was performed, as described previously. Purified enzyme NEP was purchased from Merck (Warsaw, Poland). Solutions of Met-enkephalin, NEP, and inhibitors were prepared by dissolving them in a Tris–HCl buffer (50 mM, pH 7.4). In investigated samples, the concentrations of Met-enkephalin, inhibitors, and NEP were, respectively, 0.0413 mM, 0.156 mM, and 5.687 nM. The samples consisting of NEP, Met-enkephalin, and the inhibitor were incubated over 0, 30, 60, 90, and 120 min at 37 °C in a final volume of 300 μL. The reaction was stopped with a 1 M aqueous HCl solution. In the next steps, the samples were centrifuged and the supernatants were filtered and analyzed by RP-HPLC. All measurements were performed in triplicates.

[2] = Stability of peptides in human plasma; type: in vitro ADME; conditions: 37 °C, 200 µL peptide solution (1 mg/mL in PBS pH 7.42) + 50 µL human plasma, ethanol deproteinization, RP-HPLC peak area vs 0 h, at least triplicate; for Stability in human plasma relative to heterodimer of sialorphin and spinorphin, after 4 h: 4 h incubation; for Level of remaining peptide in human plasma relative to heterodimer of sialorphin and spinorphin, after 24 h: 24 h incubation
Procedure: Compounds VII and VIII were the strongest inhibitors of NEP in vitro and were thus included in stability assays. Peptides were incubated in the human plasma at 37 °C, and their degradation was analyzed by RP HPLC. The stability of peptides VII–VIII was compared to that of a heterodimer of sialorphin and spinorphin and not sialorphin alone. In previously described stability assays of sialorphin alone, the 48% TFA solution was used to precipitate proteins before HPLC analysis. In the case of the peptides VII and VIII, we had to use ethanol instead of the TFA solution. This change was required by the fact that in the latter solution, an emergence of a degradation product that was characterized by identical retention time on HPLC as that of peptides VII and VIII occurred. Consequently, a different reference was used (heterodimer of sialorphin and spinorphin instead of sialorphin).
Plasma-stability assays were performed by applying procedure described by Sobocińska et al.. Each peptide solution was prepared by dissolving 1 mg of a peptide in 1 mL of PBS buffer (pH 7.42). The samples containing the peptide (200 µL) and freshly […] plasma (50 µL) were incubated at 37 °C. The samples were analyzed after 0, 2, 4, and 24 h. At each time interval 40 μL of the mixture was taken and deproteinized by addition of a ethanol (120 µL). The aliquots were centrifuged at 14,500 rpm for 5 min. The supernatants were filtered over Millipore Millex-GV syringe filters (Merck Life Science, Poznan, Poland) and analyzed with RP-HPLC on a Phenomenex Gemini-NX C18 5 µm column (4.6 mm × 150 mm) using the solvent system of 0.1% TFA in water (A) and 0.1% TFA in acetonitrile (B) and linear gradients of 20–80% (B) over 20 min, at a flow rate of 1.5 mL/min. To assess the stability at each time interval, the area of the peptide peak from the chromatogram was calculated and expressed as the percentage of the area of the peak recorded just after mixing a peptide with plasma (0-hour). The assay was performed at least in triplicate for each peptide.

[3] = system: DSS-induced colitis in mice; test: DSS-induced mouse model of colitis; type: in vivo, mouse (male BALB/C); conditions: for Effect on microscopic damage score / colon architecture (in words): DSS-induced colitis, peptide 1 mg/kg i.p. twice daily day 3-6, hematoxylin-eosin stained distal colon sections, day 7
Procedure: Male BALB/C mice obtained from University of Lodz, Poland, weighing 22–25 g (6–8 weeks of age), were used. The mice were kept at a constant temperature (22–23 °C) and maintained under a 12 h light/dark cycle with constant access to laboratory chow and tap water. All animal protocols were approved by the Medical University of Lodz Animal Care Committee (Protocol 2/ŁB 123/2019 and 17/ŁB 132/2019) and complied with Directive 2010/63/EU of the European Parliament and of the Council of 22 September 2010. All efforts were made to minimize animal suffering and to reduce the number of animals used.
Colonic inflammation was induced as described before. From day 0 to day 5, mice received DSS: 4% w/v and molecular weight 40,000 (PanReac AppliChem, Darmstadt, Germany) in drinking water. On days 6 and 7, the DSS solution was replaced with tap water. Control animals were given drinking water throughout the whole experiment. Animal body weight was monitored daily. Mice were sacrificed by cervical dislocation on day 7, and colonic damage was evaluated.
Treatment was administered intraperitoneally (i.p.) twice daily from day 3 to day 6 after colitis induction, 100 µL/mouse. Peptides were administered at the dose of 1 mg/kg bw. Control and DSS groups received vehicle alone (100 µL/mouse, i.p.).
On day 7 of the experiment, mice were euthanized. For total macroscopic damage score evaluation, the colon was removed immediately after cervical dislocation and weighed with fecal content. Next, the colon was opened longitudinally, and the feces were removed.
Total macroscopic damage score was calculated based on the stool consistency (0—normal, well-shaped fecal pellets; 3—diarrhea), colon epithelial damage (0–3), and colon length and weight scores, calculated as a loss of each parameter relative to the control group (0 points, ≤5% weight/length loss; 1 point, 5–14% weight/length loss; 2 points, 15–24% weight/length loss; 3 points, 25–35% weight/length loss; and 4 points, ≥35% weight/length loss). […] The presence (score = 1) or absence (score = 0) of fecal blood was also recorded. […]

Sequence of neutral endopeptidase (NEP) (P08473 whole entry, species assumed): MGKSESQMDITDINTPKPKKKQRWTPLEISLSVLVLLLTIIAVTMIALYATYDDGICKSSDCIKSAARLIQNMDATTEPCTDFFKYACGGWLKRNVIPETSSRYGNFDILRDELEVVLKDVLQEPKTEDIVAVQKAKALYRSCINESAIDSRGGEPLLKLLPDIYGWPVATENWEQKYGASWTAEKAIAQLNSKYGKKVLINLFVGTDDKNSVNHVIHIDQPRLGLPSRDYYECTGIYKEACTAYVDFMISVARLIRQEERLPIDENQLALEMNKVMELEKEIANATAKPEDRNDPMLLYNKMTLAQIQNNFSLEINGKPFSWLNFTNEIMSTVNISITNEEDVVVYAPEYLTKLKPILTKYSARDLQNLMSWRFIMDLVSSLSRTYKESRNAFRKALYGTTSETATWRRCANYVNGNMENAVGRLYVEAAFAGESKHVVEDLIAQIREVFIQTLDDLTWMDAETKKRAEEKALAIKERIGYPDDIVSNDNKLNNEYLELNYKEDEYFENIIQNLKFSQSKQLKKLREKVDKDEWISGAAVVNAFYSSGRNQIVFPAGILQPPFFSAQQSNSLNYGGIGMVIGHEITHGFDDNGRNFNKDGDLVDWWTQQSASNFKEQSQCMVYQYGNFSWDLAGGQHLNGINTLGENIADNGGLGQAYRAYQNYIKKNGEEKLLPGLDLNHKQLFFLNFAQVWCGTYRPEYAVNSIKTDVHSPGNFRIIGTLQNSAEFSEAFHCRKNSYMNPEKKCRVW

1000 × k, degradation rate of Met-enkephalin incubated with NEP in the presence of inhibitor [1]	t1/2, half-life of Met-enkephalin incubated with NEP in the presence of inhibitor [1] [min]	Stability in human plasma relative to heterodimer of sialorphin and spinorphin, after 4 h [2] [times]	Level of remaining peptide in human plasma relative to heterodimer of sialorphin and spinorphin, after 24 h [2] [times]	Structure (SMILES)	half-life at 0.0413 mM ([1]; isolated enzyme neprilysin, pH 7.4) [min]	Effect on microscopic damage score / colon architecture (in words) [3]	Total macroscopic damage score ([3]; DSS 4% w/v in drinking water day 0-5, peptide 1 mg/kg i.p. twice daily day 3-6, evaluated day 7, mean ± SEM, n = 5–10, DSS-only 11.20 ± 0.60, control 0.55 ± 0.18)
0.89 ± 0.10 *** 1/min	724 ± 43	1.4	5.5	CCCCCCCCCCCCCCCCCC(=O)N[C@@H](CCCCN)C(=O)N[C@@H](CCCCN)C(=O)N[C@@H](CCC(N)=O)C(=O)N[C@@H](Cc1c[nH]cn1)C(=O)N[C@@H](CC(N)=O)C(=O)N1CCC[C@H]1C(=O)N[C@@H](CCCNC(=N)N)C(=O)O [VIII] (HELM PEPTIDE1{[CCCCCCCCCCCCCCCCCC(=O)[*:2]].K.K.Q.H.N.P.R}$$$$V2.0)		less pronounced	
3.46 ± 0.40 *** 1/min	199 ± 2	1.4	1.3	CCCCCCCCCCCCCCCC(=O)N[C@@H](CCCCN)C(=O)N[C@@H](CCCCN)C(=O)N[C@@H](CCC(N)=O)C(=O)N[C@@H](Cc1c[nH]cn1)C(=O)N[C@@H](CC(N)=O)C(=O)N1CCC[C@H]1C(=O)N[C@@H](CCCNC(=N)N)C(=O)O [VII] (HELM PEPTIDE1{[CCCCCCCCCCCCCCCC(=O)[*:2]].K.K.Q.H.N.P.R}$$$$V2.0)		significantly improved colon architecture	10.20 ± 0.99
20.06 ± 1.34 ** 1/min	35 ± 2			CCCCCCCCCCCCCC(=O)N[C@@H](CCCCN)C(=O)N[C@@H](CCCCN)C(=O)N[C@@H](CCC(N)=O)C(=O)N[C@@H](Cc1c[nH]cn1)C(=O)N[C@@H](CC(N)=O)C(=O)N1CCC[C@H]1C(=O)N[C@@H](CCCNC(=N)N)C(=O)O [VI] (HELM PEPTIDE1{[CCCCCCCCCCCCCC(=O)[*:2]].K.K.Q.H.N.P.R}$$$$V2.0)			

The remaining lines, values behind:

Structure (SMILES)	1000 × k, degradation rate of Met-enkephalin incubated with NEP in the presence of inhibitor [1]	t1/2, half-life of Met-enkephalin incubated with NEP in the presence of inhibitor [1] [min]	Stability in human plasma relative to heterodimer of sialorphin and spinorphin, after 4 h [2] [times]	Level of remaining peptide in human plasma relative to heterodimer of sialorphin and spinorphin, after 24 h [2] [times]	half-life at 0.0413 mM ([1]; isolated enzyme neprilysin, pH 7.4) [min]	Effect on microscopic damage score / colon architecture (in words) [3]	Total macroscopic damage score ([3]; DSS 4% w/v in drinking water day 0-5, peptide 1 mg/kg i.p. twice daily day 3-6, evaluated day 7, mean ± SEM, n = 5–10, DSS-only 11.20 ± 0.60, control 0.55 ± 0.18)
CSCC[C@H](NC(=O)[C@H](Cc1ccccc1)NC(=O)CNC(=O)CNC(=O)[C@@H](N)Cc1ccc(O)cc1)C(=O)O [Met-Enkephalin, Met-enkephalin, reference compound]					27 ± 1		
CCCCCCCCCCCC(=O)N[C@@H](CCCCN)C(=O)N[C@@H](CCCCN)C(=O)N[C@@H](CCC(N)=O)C(=O)N[C@@H](Cc1c[nH]cn1)C(=O)N[C@@H](CC(N)=O)C(=O)N1CCC[C@H]1C(=O)N[C@@H](CCCNC(=N)N)C(=O)O [V] (HELM PEPTIDE1{[CCCCCCCCCCCC(=O)[*:2]].K.K.Q.H.N.P.R}$$$$V2.0)	23.20 ± 0.89 min⁻¹	30 ± 1					
